# Laboratory results reported in US10774069B2, “Crystalline forms of a lysyl oxidase-like 2 inhibitor and methods of making” (PHARMAKEA, INC., priority 2016, dated 2020).
# “Also recorded” adds a separate entry of the source. Counter-ions that a name gives are not always drawn. Like-named read-outs stand apart in the source and are kept apart here.
# Tests used:
# [1] = Description: After each addition of solvent, the system was shaken gently for 10 minutes at 50° C. and then allowed to stand at room temperature for 5 min before the addition of a new aliquot of solvent. After the assessment was completed, any suspensions obtained were matured and clear solutions were cooled at 5° C.
# Supernatants from maturation were allowed to slowly evaporate at ambient conditions.
# [2] = Solid form storage stability at elevated temperature/humidity; format: physicochemical
# Description: All retrieved solids from the crystallisation attempts were stored at 40° C. and 75% RH.
# [3] = Stability studies (accelerated and ICH); format: physicochemical
# Description: The compounds were assayed according to appearance, purity, related Substances, chiral purity, moisture, DSC, and XRPD
# LOXL2 [4] = target: T1, LOXL2 (Homo sapiens (Human), UniProt Q9Y4K0); experiment: Human LOXL2 CCM Assay (Amplex Red amine oxidase activity); format: biochemical; settings: concentrated conditioned media from CHO cells expressing human LOXL2; 2 h at 37° C.
# Description: Human LOXL2/CHO and human LOX/HEK stable cell lines were cultured under normal growth conditions in 15 cm tissue culture plates until cells were ˜80% confluent. Cells were then washed with PBS before the addition of 25-30 mL serum-free media (Phenol red-free DMEM/F12 mix w/glutamax containing pen/strep, 10-100 μM CuCl2±0.1% BSA). Cells were incubated at 37° C., 5% CO2 in serum-free media for 40-48 hours before the conditioned media was removed and centrifuged at 2000 rpm for 5 min at 4° C. to pellet cells/debris. The media was concentrated 10-20× using 10-30 MWCO centriprep columns according to the manufacturer's instructions (EMD Millipore, Billerica, Mass.) before aliquoting and storing at −80° C.
# LOXL2 amine oxidase activity was evaluated by measuring Amplex Red fluorescence using 10-20× concentrated conditioned media (non BSA-containing) from CHO cells stably expressing human LOXL2. […] After the 2 h incubation, 5 μL of 10 mM 1,5-Diaminopentane (DAP) diluted in Assay Buffer and 10 μL of Amplex Red Mix (8.5 μL Assay Buffer+0.5 μL of 10 mM Amplex Red+1 μL of 500 U/ml Horseradish Peroxidase) were added and the plate mixed and immediately placed on the FlexStation for fluorescence measurements. Fluorescence was read in kinetic mode every 2 min for 0.5-1 hour at excitation=544 and emission=590. The amine oxidase activity was calculated from the slope of the linear portion of the curve. […]
# [5] = Clear point / cloud point in IPA:water (Crystal 16); format: physicochemical; settings: mixture of Forms 1 and 4
# Description: The samples were then cooled from 70 back to −8° C. at the same rate. The clear point upon heating (at 100% transmission) and the cloud point upon re-cooling (<100% transmission) were recorded using the Crystal 16 instrument and the data is shown in Table 17. XRPD analysis was performed on all solids obtained post cooling.
# Forced degradation study = format: physicochemical
# LOXL2 [6] = target: T1, LOXL2; experiment: In vitro assays, potency of enantiomers; format: biochemical
# [7] = Preliminary free base solubility assessment of Compound I; format: physicochemical; settings: organic solvent or mixture, thermodynamic from solid
# Description: After each addition of solvent, the system was shaken at 50° C. for 10 min and then allowed to stand at room temperature for 5 min before the addition of a new aliquot of solvent.
# physchem = settings: 25 °C, water, thermodynamic from solid
# [8] = Solid form storage stability at elevated temperature/humidity; format: physicochemical; remark: listed apart in the source
# [9] = Aqueous and organic solubility of Form 1 of Compound 2; format: physicochemical
# [10] = Gravimetric Vapor Sorption (GVS); format: physicochemical; settings: 0 to 90% RH
# From the text: Gravimetric Vapor Sorption (GVS) isotherms were obtained using an SMS DVS Intrinsic moisture sorption analyser, controlled by DVS Intrinsic Control software v1.0.1.2 (or v 1.0.1.3), over a range of 0 to 90% relative humidity (RH).
# T1 sequence (Q9Y4K0 26-774): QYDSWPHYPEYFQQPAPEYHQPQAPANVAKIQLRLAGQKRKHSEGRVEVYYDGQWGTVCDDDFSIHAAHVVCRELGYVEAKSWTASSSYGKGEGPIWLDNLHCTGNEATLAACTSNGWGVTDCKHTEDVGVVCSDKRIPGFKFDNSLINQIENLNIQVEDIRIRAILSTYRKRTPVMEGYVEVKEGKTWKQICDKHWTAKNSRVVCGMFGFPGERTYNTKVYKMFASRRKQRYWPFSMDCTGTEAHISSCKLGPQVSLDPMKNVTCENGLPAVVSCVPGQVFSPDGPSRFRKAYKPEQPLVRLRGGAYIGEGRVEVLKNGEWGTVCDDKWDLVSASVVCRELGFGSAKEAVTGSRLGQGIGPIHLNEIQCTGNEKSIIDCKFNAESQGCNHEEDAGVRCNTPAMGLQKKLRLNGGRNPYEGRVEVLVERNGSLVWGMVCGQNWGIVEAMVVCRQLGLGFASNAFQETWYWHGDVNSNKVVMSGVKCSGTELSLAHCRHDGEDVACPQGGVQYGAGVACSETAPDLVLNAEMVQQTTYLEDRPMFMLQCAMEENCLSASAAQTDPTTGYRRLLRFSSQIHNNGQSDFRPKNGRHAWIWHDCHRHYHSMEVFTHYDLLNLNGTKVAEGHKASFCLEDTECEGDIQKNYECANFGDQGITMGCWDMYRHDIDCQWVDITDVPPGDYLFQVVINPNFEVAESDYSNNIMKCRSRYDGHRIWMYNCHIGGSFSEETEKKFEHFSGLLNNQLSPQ
compound,measurement,setting,value
Cl.NCc1cc(Oc2cccc(C(=O)N3C[C@@H](O)[C@H](F)C3)c2)nc(C(F)(F)F)c1 [Amorphous Compound 1],solubility,[1],200 − 100
same,Behaviour at 40° C./75% RH,[2]; 40° C./75% RH,deliquesces
same,"7 days storage @ 40° C./75% RH, appearance",[2]; 40° C./75% RH,Glassy material
"Cl.NCc1cc(Oc2cccc(C(=O)N3C[C@@H](O)[C@H](F)C3)c2)nc(C(F)(F)F)c1 [Compound 1, (R,R)-trans-(3-((4-(aminomethyl)-6-(trifluoromethyl)pyridin-2-yl)oxy)phenyl)(3-fluoro-4-hydroxypyrrolidin-1-yl)methanone, hydrochloride salt]",Changes in purity or absorption of moisture,[3]; 3 month accelerated condition (40° C./75% RH),no significant changes
same,IC50,LOXL2 [4],< 300 nM
"NCc1cc(Oc2cccc(C(=O)N3C[C@@H](O)[C@H](F)C3)c2)nc(C(F)(F)F)c1 [Compound 2, (R,R)-trans-(3-((4-(aminomethyl)-6-(trifluoromethyl)pyridin-2-yl)oxy)phenyl)(3-fluoro-4-hydroxypyrrolidin-1-yl)methanone, methanesulfonate salt]",Clear Point Temperature,[5]; 5 mg in 1 mL IPA:water 95:5,6.9 °C
same,Clear Point Temperature,[5]; 10 mg in 1 mL IPA:water 95:5,20.3 °C
same,Clear Point Temperature,[5]; 20 mg in 1 mL IPA:water 95:5,37.2 °C
same,Clear Point Temperature,[5]; 30 mg in 1 mL IPA:water 95:5,48.5 °C
same,Cloud Point Temperature,[5]; 30 mg in 1 mL IPA:water 95:5,−7.8 °C
same,Clear Point Temperature,[5]; 40 mg in 1 mL IPA:water 95:5,55.8 °C
same,Cloud Point Temperature,[5]; 40 mg in 1 mL IPA:water 95:5,−1.8 °C
same,Clear Point Temperature,[5]; 60 mg in 1 mL IPA:water 95:5,64 °C
same,Cloud Point Temperature,[5]; 60 mg in 1 mL IPA:water 95:5,14.5 °C
same,Clear Point Temperature,[5]; 70 mg in 1 mL IPA:water 95:5,68.6 °C
same,Cloud Point Temperature,[5]; 70 mg in 1 mL IPA:water 95:5,24.7 °C
same,"Solid state stability, heat","Forced degradation study; solid, 100° C., 24 hours",stable
same,"Solid state stability, light","Forced degradation study; solid, light max 365 nm, 24 hours",stable
same,"Solution state stability, heat","Forced degradation study; solution, 50° C. for 24 hours",stable
same,"All attributes tested (appearance, purity, related substances, chiral purity, moisture, DSC, XRPD)","[3]; 1 month data, long-term and accelerated conditions of 1-year and 2-year ICH studies",within limits
"NCc1cc(Oc2cccc(C(=O)N3C[C@@H](O)[C@H](F)C3)c2)nc(C(F)(F)F)c1 [Compound I, (R,R)-trans-(3-((4-(aminomethyl)-6-(trifluoromethyl)pyridin-2-yl)oxy)phenyl)(3-fluoro-4-hydroxypyrrolidin-1-yl)methanone]","Potency relative to the (S,S)-isomer",LOXL2 [6],less than 2 fold
same,solubility at 10 min,[7]; 2-Propanol,> 100 mg/mL
same,solubility at 10 min,[7]; Acetonitrile,> 100 mg/mL
same,solubility at 10 min,[7]; Dichloromethane,> 100 mg/mL
same,solubility at 10 min,[7]; Ethanol,> 100 mg/mL
same,solubility at 10 min,[7]; Ethyl Acetate,> 100 mg/mL
same,solubility at 10 min,[7]; Hexane,> 100 mg/mL
same,solubility at 10 min,[7]; Tetrahydrofuran,> 100 mg/mL
same,solubility at 10 min,"[7]; Toluene, up to 50 vol",> 20 mg/mL
Cl.NCc1cc(Oc2cccc(C(=O)N3C[C@@H](O)[C@H](F)C3)c2)nc(C(F)(F)F)c1 [Form 1 of Compound 1],solubility,physchem,≥ 1000 mg/mL
same,Hygroscopicity,[8],hygroscopic solid; also recorded: hygroscopic form
same,Solubility in maturation solvents,[1],insoluble
same,Behaviour on storage,"[2]; 40° C. and 75% RH, after 24 hours",deliquescing
same,Form change on storage,[2]; 40° C./75% RH for one week,transforms to Form 2
same,"7 days storage @ 40° C./75% RH, appearance",[2]; 40° C./75% RH,Waxy/glassy solid +
same,"7 days storage @ 40° C./75% RH, resulting XRPD form",[2]; 40° C./75% RH,particles - Form 2
CS(=O)(=O)O.NCc1cc(Oc2cccc(C(=O)N3C[C@@H](O)[C@H](F)C3)c2)nc(C(F)(F)F)c1 [Form 1 of Compound 2],solubility,"[9]; aqueous medium, pH 2, aqueous buffer, read-out: Aqueous Solubility",> 107 mg/mL
same,solubility,"[9]; aqueous medium, pH 7.4, aqueous buffer, read-out: Aqueous Solubility",> 107 mg/mL
same,solubility,"[9]; aqueous medium, pH 10, aqueous buffer, read-out: Aqueous Solubility",> 85 mg/mL
same,solubility,"[9]; ethanol, organic solvent or mixture, EtOH, read-out: Organic Solubility, Qualitative Solubility",~15 mg/mL
same,solubility,"[9]; ethanol/water (90:10), isopropanol/water (90:10), organic solvent or mixture, read-out: Organic Solubility, Qualitative Solubility",~50 mg/mL
same,solubility,"[9]; methanol, tetrahydrofuran/water (90:10), organic solvent or mixture, read-out: Organic Solubility, Qualitative Solubility",~100 mg/mL
same,solubility,"[9]; organic solvent or mixture, isopropyl acetate, isopropanol, methyl-ethyl ketone, acetone, ethanol, methyl-t-butyl ether, 1,4 dioxane, toluene, tetrahydrofuran, dichloromethane, acetonitrile, read-out: Organic Solubility, Qualitative Solubility",≤ 10 mg/mL
same,solubility,"[9]; water, dimethyl sulfoxide, read-out: Organic Solubility, Qualitative Solubility",> 200 mg/mL
same,XRPD after the GVS analysis,[10],X-ray powder diffraction (XRPD): Unchanged
same,Polymorph stability on storage,[2]; 7 days at 40° C./75% RH and 25° C./97% RH,"Form 1, which is stable for 7 days at 40° C./75% RH and 25° C./97%"
Cl.NCc1cc(Oc2cccc(C(=O)N3C[C@@H](O)[C@H](F)C3)c2)nc(C(F)(F)F)c1 [Form 2 of Compound 1],Thermal stability,[8],thermally stable
same,"7 days storage @ 40° C./75% RH, appearance",[2]; 40° C./75% RH,Waxy/glassy solid +
same,"7 days storage @ 40° C./75% RH, resulting XRPD form",[2]; 40° C./75% RH,particles - Form 2
same,Physical change over time,[2]; over time,converts over time to a waxy solid
same,Behaviour on storage,[2]; storage conditions (40° C. and 75% RH) for 1 week,remained unchanged
CS(=O)(=O)O.NCc1cc(Oc2cccc(C(=O)N3C[C@@H](O)[C@H](F)C3)c2)nc(C(F)(F)F)c1 [Form 2 of Compound 2],Form change on storage,[8]; 7 days at 25° C./97% RH,change also occurs
same,Form change after GVS and storage,[2]; after GVS analysis and 7 days at 40° C./75% RH,phase transformation towards Form 1
same,Form conversion in humidity,[2]; in humidity,converts to Form 1
CS(=O)(=O)O.NCc1cc(Oc2cccc(C(=O)N3C[C@@H](O)[C@H](F)C3)c2)nc(C(F)(F)F)c1 [Form 3 of Compound 2],XRPD change on heating and storage,[2]; heating to 130° C. and upon the storage conditions,changed to Form 1
